# Read-outs that look alike come from different tables or passages of the source.
# What was measured:
# [1] = Pharmacokinetics of AE-PM components and their phase II metabolites in rat plasma after single oral administration (UHPLC-MS/MS, with and without sulfatase hydrolysis); settings: for AUC(0-inf) / CL/F / Cmax / MRT inf / Tmax / Vd/F / half-life / t1/2z / Conversion into phase II metabolites: plasma; for CL/F: CLz/F; for MRT inf: MRT (0-∞); for Vd/F: Vz/F; for half-life: t1/2z; for Conversion into phase II metabolites: rats
# Method: (§1) To explore the pharmacokinetic properties of PM following intragastric administration in rats, a rapid and sensitive method involving the use of UHPLC-MS/MS (Agilent 6460 series, Agilent Technologies, Santa Clara, CA, United States) was developed and validated for the simultaneous quantification of nine active components in rat plasma. The quantification was conducted in ESI negative ionization mode, and mass spectrometry conditions were set up as follows: capillary voltage of 3500 V; gas flow at 12 L/min; nebulizer of 40 psi; the gas temperature of 350°C; and delta EMV (−) of 400. A 10 µl extraction sample was injected into the column (Agilent SB-C18 column, 2.1 mm × 50 mm, 1.8 mm) and eluted at 0.4 ml/min with a gradient elution of water (with 0.1% v/v formic acid) (A) and acetonitrile (B) (0–1.5 min, 20–30% B; 1.5–3.5 min, 30–50% B; 3.five to four min, 50–55%B; 4–6.5 min, 55–85% B; 6.5–6.6 min, 85–20% B and re-equilibration for 3 min).
# (§2) A 50 µl aliquot of blood plasma sample was placed in a centrifuge tube with 50 µl of puerarin (internal standard, IS) solution (1,000 ng/ml), followed by 150 µl methanol, which was mixed for 5 min. Then, the mixture was centrifuged for 10 min at 15,000 rpm (4°C), the supernatant was transferred to a clean centrifuge tube and dried with nitrogen gas at room temperature. The residue was resuspended in 100 µl of methanol, then centrifuged at 15,000 rpm (4°C, 10 min), and 10 µl of the supernatant was analyzed by UHPLC-MS/MS.
# (§3) Additional plasma samples (50 µl) were enzymatically hydrolyzed with 50 µl of enzyme solution (65.86 mg of sulfatase, dissolved in 2 ml of sodium acetate buffer, pH 5.0) for phase II metabolite quantification, in accordance with our previous study ([Ding et al., 2012]; [Yi et al., 2018]). After being vortex mixed for 5 min, the mixture was incubated at 37°C for 30 min and returned to room temperature. Subsequently, the samples were processed as described above.
# (§4) The remaining 21 rats of the three groups were treated with a single oral dose of AE-PM (50.4 g PM/kg). […] Blood was collected in heparinized tubes at 5, 15, 30, 45, 60, 120, 240, 360, 480, 720, 1,440, 2,880, and 4,320 min after administration. The blood samples were centrifuged at 5,000 rpm (4°C) for 7 min, and the supernatant plasma was harvested.
# (§5) All data were presented as mean ± standard deviation (SD). A one-way analysis of variance (ANOVA) was used to compare the data between three groups. The differences were considered to be statistically significant when p < 0.05 and highly significant when the p-value was <0.01 or p < 0.001. Spearman rank correlation coefficient, calculated by bivariate correlation analysis was used to evaluate the correlation between AUC values and expression levels of metabolic enzyme and transporters. All statistical analyses were performed with the SPSS Statistics system (SPSS vision 21.0). Pharmacokinetic data analyses were performed using DAS 2.1.1 software (Mathematical Pharmacology Professional Committee of China, Shanghai, China).
# in vivo = settings: rat, po, 50 g/kg; for MRT inf: MRT (0-∞); for MRT inf / Tmax: oral AE-PM 50 g/kg, plasma, n = 6
# Method: as §1, §2, §3, §4, §5
# [2] = rat, in vivo, po
# Method: as §1, §2, §3, §4, §5
# [3] = rat, po, 50 g/kg, ANIT group rats, oral AE-PM 50 g/kg, n = 6
# [4] = rat, po, 50 g/kg, CCl4 group rats, oral AE-PM 50 g/kg, n = 6
# [5] = rat, po, 50 g/kg, Normal group rats, oral AE-PM 50 g/kg, n = 6
# [6] = rat, po, 50 g/kg, Tmax, ANIT group rats, oral AE-PM 50 g/kg, n = 6
# [7] = rat, po, 50 g/kg, Tmax, CCl4 group rats, oral AE-PM 50 g/kg, n = 6
# [8] = rat, po, 50 g/kg, Tmax, Normal group rats, oral AE-PM 50 g/kg, n = 6
# [9] = CCl4 group rats, oral AE-PM 50 g/kg, n = 6
# [10] = rat, po, 50.4 g PM/kg, Tmax, different groups (normal, ANIT, CCl4), oral AE-PM
SMILES,"AUC(0-inf) [1, 3] [ng·h/mL]","AUC(0-inf) [1, 4] [ng·h/mL]","AUC(0-inf) [1, 5] [ng·h/mL]","CL/F [1, 3] [mL/min/kg]","CL/F [1, 4] [mL/min/kg]","CL/F [1, 5] [mL/min/kg]","Cmax [1, 3] [ng/mL]","Cmax [1, 4] [ng/mL]","Cmax [1, 5] [ng/mL]","MRT inf [1, 3] [h]","MRT inf [1, 4] [h]","MRT inf [1, 5] [h]","Tmax [1, 6] [h]","Tmax [1, 7] [h]","Tmax [1, 8] [h]","Vd/F [1, 3] [L/kg]","Vd/F [1, 4] [L/kg]","Vd/F [1, 5] [L/kg]","half-life [1, 3] [h]","half-life [1, 5] [h]",other results
"COc1cc(O)c2c(c1)C(=O)c1cc(C)cc(O[C@@H]3O[C@H](CO)[C@@H](O)[C@H](O)[C@H]3O)c1C2=O [P-glu, physcion-8-O-β-D-glucoside]",7050,1450,2270,47.3,230,147,223 ± 13.2,211 ± 3.04,148 ± 8.95,18.8 ± 3.36,7.48 ± 1.42,15.9 ± 2.36,1 ± 0.232,0.25 ± 0.0661,0.75 ± 0.049,13.2 ± 1.86,81.3 ± 5.01,143 ± 11.1,3.22 ± 0.473,11.3 ± 1.85,"half-life [1, 4]: 4.08 ± 0.453 h"
"COc1cc(O)c2c(c1)C(=O)c1cc(C)cc(O)c1C2=O [Physcion, physcion]",14000,36000,27800,23.9,9.27,12,1510,5840,2140,37.6 ± 2.27,10 ± 1.14,26.7 ± 1.52,0.75 ± 0.0238,1 ± 0.0675,0.5 ± 0.094,59.8 ± 3.41,7.05 ± 1.11,17.6 ± 2.41,28.9 ± 1.5,17 ± 1.87,"Decrease of AUC (0-∞) compared with the normal group ([1]; ANIT model rats, oral AE-PM): 49.77%; Decrease of Cmax compared with the normal group ([1]; ANIT model rats, oral AE-PM): 29.48%; Increase of AUC (0-∞) compared with the normal group ([1]; CCl4 model rats, oral AE-PM): 29.24%; Increase of Cmax compared with the normal group ([1]; CCl4 model rats, oral AE-PM): 173.72%; Levels of glucuronidation and sulfation conjugates in plasma ([1]; oral AE-PM, sulfatase hydrolysis): too low to allow pharmacokinetic analysis; half-life [1, 4]: 8.78 ± 1.6 h"
"O=C(O)c1cc(O)c(O)c(O)c1 [Gallic acid, gallic acid]",,,,,,,,,,,,,,,,,,,,,MRT inf (in vivo; ANIT group rats): 55.7 ± 4.22 h; MRT inf (in vivo; CCl4 group rats): 3.06 ± 0.12 h; MRT inf (in vivo; Normal group rats): 12.8 ± 1.02 h; Tmax (in vivo; ANIT group rats): 0.75 ± 0.0231 h; Tmax (in vivo; CCl4 group rats): 0.25 ± 0.0641 h; Tmax (in vivo; Normal group rats): 0.25 ± 0.0728 h; Vd/F (in vivo; Vz/F): 205 ± 2.2 L/kg
"Cc1cc(O[C@@H]2O[C@H](CO)[C@@H](O)[C@H](O)[C@H]2O)c2c(c1)C(=O)c1cc(O)cc(O)c1C2=O [E-glu, emodin-8-O-β-D-glucoside]",1720 ± 170,14200,1880 ± 538,193,23.5,177,633 ± 50,5920,821 ± 85,2.81 ± 0.872,2.44 ± 1.17,3.88 ± 1.52,1 ± 0.248,1 ± 0.289,0.25 ± 0.0301,78.3 ± 4.4,8.13 ± 1.75,60.2 ± 9.45,4.68 ± 1.1,3.92 ± 0.219,"Decrease of AUC (0-∞) compared with the normal group ([1]; ANIT model rats, oral AE-PM): 8.25%; Decrease of Cmax compared with the normal group ([1]; ANIT model rats, oral AE-PM): 22.98%; Increase of AUC (0-∞) compared with the normal group ([1]; CCl4 model rats, oral AE-PM): 655.90%; Increase of Cmax compared with the normal group ([1]; CCl4 model rats, oral AE-PM): 620.15%; half-life [1, 4]: 4 ± 1.4 h"
"O=C1c2cccc(O)c2C(=O)c2c(O)cc(CO)cc21 [Aloe-emodin, aloe-emodin]",41700,6620,3560,7.98,50.4,93.6,1570,2600,1270,198 ± 3.17,6.47 ± 0.422,14 ± 1.42,0.25 ± 0.032,0.25 ± 0.052,0.167 ± 0.051,96.7 ± 8.35,15 ± 1.2,28.7 ± 1.55,140 ± 8.29,3.54 ± 0.185,"t1/2z [1, 9]: 3.448 ± 0.177 h; Tmax [1, 10]: < 0.5 h"
"OC[C@H]1O[C@@H](Oc2c(O)cc(O)cc2/C=C/c2ccc(O)cc2)[C@H](O)[C@@H](O)[C@@H]1O [TSG, 2,3,5,4'-tetrahydroxystilbene-2-O-β-D-glucoside]",341000,116000,12900,0.983,2.87,25.9,99300,50600,15000,6.03 ± 1.93,3.4 ± 1.04,4.54 ± 1.23,0.5 ± 0.0278,0.75 ± 0.136,0.25 ± 0.0293,0.221 ± 0.0206,0.698 ± 0.073,4.37 ± 0.711,2.61 ± 0.612,1.95 ± 0.806,"Increase of AUC (0-∞) compared with the normal group ([1]; ANIT model rats, oral AE-PM): 2,548.17%; Increase of Cmax compared with the normal group ([1]; ANIT model rats, oral AE-PM): 560.12%; Increase of AUC (0-∞) compared with the normal group ([1]; CCl4 model rats, oral AE-PM): 802.14%; Increase of Cmax compared with the normal group ([1]; CCl4 model rats, oral AE-PM): 236.59%; half-life [1, 4]: 2.81 ± 0.878 h; Conversion into phase II metabolites ([1]; oral AE-PM): partially converted"
"Oc1cc(O)c2c(c1)O[C@H](c1ccc(O)c(O)c1)[C@@H](O)C2 [Catechin, catechin]",11600,1500,12600,28.8,222,26.4,84.5 ± 8.85,453 ± 8.94,251 ± 11.8,253 ± 3.75,11.2 ± 1.23,146 ± 11.3,1 ± 0.742,0.5 ± 0.0408,0.25 ± 0.0234,442 ± 16.9,72.2 ± 12.6,237 ± 18.3,177.3 ± 1.09,104 ± 14.9,"half-life [1, 4]: 3.76 ± 0.816 h; Conversion into phase II metabolites ([1]; oral AE-PM): partially converted"
"Cc1cc(O)c2c(c1)C(=O)c1cc(O)cc(O)c1C2=O [Emodin, emodin]",1500,5970,3400,223,55.9,98.1,607 ± 29.9,6430,4100,22.8 ± 5.28,1.23 ± 0.681,6.09 ± 1.83,,,0.167 ± 0.059,75.5 ± 8.86,68.1 ± 6.03,31.3 ± 3.25,3.91 ± 0.821,,"Decrease of AUC (0-∞) compared with the normal group [2]: 55.98%; Decrease of Cmax compared with the normal group [2]: 85.18%; Increase of AUC (0-∞) compared with the normal group [2]: 75.69%; Increase of Cmax compared with the normal group [2]: 57.02%; Tmax [1, 9]: 0.25 ± 0.0659 h; t1/2z [1, 9]: 3.654 ± 0.267 h; t1/2z ([1]; Normal group rats, oral AE-PM 50 g/kg, n = 6): 3.681 ± 1.075 h; Tmax [1, 10]: < 0.5 h; Conversion into phase II metabolites ([1]; oral AE-PM): partially converted"

# — publication PMC8245786, “Comparative Studies on Multi-Component Pharmacokinetics of Polygonum multiflorum Thunb Extract After Oral Administration in Different Rat Models” (Frontiers in Pharmacology, 2021)
